Experimental data from US10876089B2, “Apparatus and method for high-fidelity podocyte cultivation” (priority 2016, dated 2020).
Entries after “also recorded” stand apart in the source; their conditions may differ.

What was measured:
Type in all cases: cell-based
[1] = system: murine nephrin gene (NPHS1) in E11 murine podocytes; experiment: PAN stimulation of differentiated podocytes, nephrin gene expression by RT-qPCR; conditions: 17-100 μM PAN for 24 hours (day 8 to 9); microcurvature surface; 15,000 cells/cm^2; (+)ATRA media
Experimental: On day 9, cells were washed with warm, non-supplemented RPMI 1640 basal media prior to lysing and RNA isolation. A High Pure RNA Isolation Kit (Roche) was used according to manufacturer's instructions, using 50 μL of elution buffer for the final step. Each sample from the study consisted of 3 individual wells pooled together, to ensure that a sufficient amount of RNA was being collected. Thus, 9 wells were seeded for each group to generate n=3 samples per condition. Isolated RNA was converted to complementary DNA (cDNA) using the High Capacity cDNA Reverse Transcription Kit (Applied Biosystems, USA) for ensuing PCR applications. RNA solutions were diluted to a final 7.5 ng/μL in a total reaction volume of 60 μL. Real-time PCR was run on the generated cDNA using the TaqMan Gene Expression Assay (Applied Biosystems). cDNA was diluted to 3.33 ng/μL in a volume of 9 μL, for a total of 30 ng cDNA per reaction. […] Expression of murine nephrin gene (NPHS1, Thermo Fisher Scientific) and the housekeeping gene Beta-2-Microglobulin (B2M, Thermo Fisher Scientific) was determined using relative quantification analysis (28), where C57/bl6 mouse whole kidney cDNA was used as a positive control and as a normalizer in calculations. […]

E11 murine podocytes = experiment: Immunofluorescent staining (F-actin, nephrin, WGA) of differentiated podocytes; conditions: 100 μM PAN vs without PAN; microcurvature surface
Experimental: For immunofluorescent staining, cells were first washed with Dulbecco's phosphate buffered saline (DPBS, Life Technologies) and then fixed in 4% paraformaldehyde solution for 15 min at room temperature, followed by another wash with DPBS. For F-actin staining, the cells were permeated and blocked in 10% (v/v) FBS and 0.25% Triton X100 in DPBS for 1 hour. Next, the cells were incubated with Alexa Fluor® 660 phalloidin (Thermo Fisher Scientific) for 1 hour. For Nephrin and Wheat Germ Agglutinin (WGA) staining, the cells were blocked in 10% normal goat serum for 1 hour. Next, the cells were incubated in primary anti-Nephrin antibody (Thermo Fisher Scientific) overnight at 4° C. followed by incubation with FITC goat anti-rabbit IgG (1:200 dilutions, Abcam, UK) for 1 hour at room temperature. Lastly, the cells were incubated with Rhodamine-WGA (1:1000 dilution, Vector Laboratories, USA) for 10 min at room temperature.
The additional influence of the microcurvature topography is shown by the change from compacted, spindle-like cells to arborized morphologies. This was especially evident in the vehicle-only group.
From immunostaining results, it appeared that cell membrane area and nephrin expression decreased, indicating a possible reduction in cell spreading as a result of the PAN insult. However, the localization of nephrin still consistently appeared on top of the bubbles. […]

podocyte layer = experiment: Permeability of cells cultured on transwell microcurvature or flat membrane; conditions: treatment by PAN, 15,000 or 50,000 cells/cm^2
Excerpt: One of the important physiological consequences from the disruption of the nephrin adhesion protein is the loss of barrier function from the podocyte slit diaphragm, which leads to abnormal protein levels in urine (e.g. albumin, etc.). The disclosed microcurvature membrane system may enable a direct measurement of the permeability of the podocyte layer in a non-invasive manner, in order to probe the barrier function at the podocyte slit diaphragm.
The permeability of the microcurvature membrane, without cells, may be investigated using dye, fluorescently labeled molecules, or any molecule whose concentration may be quantified in the chamber solution. Some examples include 1-10 μM of 70 kDa TRITC-dextran or 60 kDa FITC-albumin. The molecule of interest may be placed in the upper transwell chamber and collected in the lower chamber over time, or vice-versa. […] FIG. 12F is a plot of example preliminary results showing the permeability of the membrane surface (also referred to as a “topomembrane”) in different configurations, namely without microcurvature (“flat topomembrane”) or with convex microcurvature (“bubble topomembrane”); with cells cultivated on the surface (“+cells”), before cell cultivation (“no cells”) or after cultivated cells are removed (“cells removed”); and compared to the culture well without any membrane (“transwells”). […]

With `CN(C)c1ncnc2c1ncn2[C@@H]1O[C@H](CO)[C@@H](N)[C@H]1O` [PAN, Puromycin amino nucleoside] the “nephrin gene expression compared to the PAN-free control” value [1] was “moderate downregulation; also recorded: dose-response downregulated behaviour”, the “cell membrane area (immunostaining)” value (E11 murine podocytes) was “decreased” and the “nephrin expression (immunostaining)” value (E11 murine podocytes) was “decreased”. The “permeability of cells in response to chemical insult” value (podocyte layer) was “increasing permeability”.
